# Measured values taken from US20250188082A1, “Use of Hypoxanthine Compound In Preparation of Drug For Treating Pulmonary Fibrosis” (Sichuan Yiasuo Pharmaceutical Technology Co., Ltd., priority 2022, published 2025).
# Columns and labels:
# Assay type in all cases: in vivo, C57BL/6 mice
# [1] = tested on: mycoplasma-induced pulmonary fibrosis model (MPFH strain); experiment: Mycoplasma-induced pulmonary fibrosis model; conditions: 120 mg/kg/d intragastric, 14 days; for Leucocyte / Lymphocyte / Neutrophil: MPFH mycoplasma + bleomycin, once a day, from two weeks after model; for Ashcroft scores: mycoplasma + bleomycin, lung tissue HE
# Source text: Experimental method: an in-vivo mycoplasma-induced pulmonary fibrosis model was established: C57BL/6 mice (with weights being 22-25 g) were randomly and evenly divided into a plurality of groups, including blank control group, model group, Nintedanib positive control group, hypoxanthine analogue A group, hypoxanthine analogue B group, hypoxanthine analogue C group, compound 1 group, compound 2 group . . . compound 12 group, with 9 mice in each group. Before a model was established, the mice were anesthetized with diethyl ether. In addition to that the mice in blank control group with instilled with 100 μL of normal saline nasally, the mice in other groups with slowly instilled with an equal volume of a MPFH strain solution (containing 1×10^7 mL^−1 MPFH strain) to the nasal cavity, for consecutive 3 days, and inhaled the MPFH strain solution into bronchi. After instillation with mycoplasmas through tracheas, the mice received 5 mg/kg bleomycin through tracheas to induce their pulmonary fibrosis. After the model was established for two weeks, the mice in each group were intragastrically administrated for intervention for consecutive 14 days; the mice in blank control group and model group intragastrically received an equal dosage of normal saline as those in drug groups; the mice in Nintedanib positive control group received Nintedanib (120 mg/kg); the mice in hypoxanthine analogue A group, hypoxanthine analogue B group and hypoxanthine analogue C group respectively received hypoxanthine analogue A (120 mg/kg/d), hypoxanthine analogue B (120 mg/kg/d) and hypoxanthine analogue C (120 mg/kg/d); and the mice in compound 1 group, compound 2 group . . . compound 12 group respectively received compound 1 (120 mg/kg/d), compound 2 (120 mg/kg/d) . . . compound 12 (120 mg/kg/d) prepared in example 1. The mice were administrated once a day to be treated for consecutive 14 days. The mice were observed every day, and their weights and death conditions were recorded. On the last day of administration, the mice were sacrificed; and blood was taken from eyeballs and kept at −80° C. for detecting blood routine indexes. Meanwhile, lungs were lavaged with normal saline and separated to collect lavage fluids for detecting counts and classes of leucocytes; and lung tissues were taken for HE straining and Ashcroft scoring on the extent of pulmonary fibrosis.
# [2] = tested on: influenza A virus-induced pulmonary fibrosis model (FM1 strain of influenza A (H1N1) virus); experiment: Influenza A virus-induced pulmonary fibrosis model; conditions: 120 mg/kg/d intragastric, 14 days; for Ashcroft scores: influenza A virus + bleomycin, lung tissue HE; for IL-1β / IL-6 / NF-κB / TNF-α: serum, influenza A (H1N1) FM1 + bleomycin, from two weeks after model
# Source text: Experimental method: an in-vivo influenza A virus-induced pulmonary fibrosis model was established: C57BL/6 mice (with weights being 22-25 g) were randomly and evenly divided into a plurality of groups, including blank control group, model group, Nintedanib positive control group, hypoxanthine analogue A group, hypoxanthine analogue B group, hypoxanthine analogue C group, compound 1 group, compound 2 group . . . compound 12 group, with 9 mice in each group. On Day 1, the mice in blank control group were instilled with normal saline nasally, and the mice in other groups were all infected with a FM1 strain of an influenza A (H1N1) virus 30 (μL) through nasal instillation. On Day 2, the mice received 5 mg/kg bleomycin through tracheas to induce their pulmonary fibrosis. After the model was established for two weeks, the mice in each group were intragastrically administrated for intervention for consecutive 14 days; the mice in blank control group and model group intragastrically received the same dosage of the normal saline as those in drug groups; the mice in Nintedanib positive control group received Nintedanib (120 mg/kg); the mice in hypoxanthine analogue A group, hypoxanthine analogue B group and hypoxanthine analogue C group respectively received hypoxanthine analogue A (120 mg/kg/d), hypoxanthine analogue B (120 mg/kg/d) and hypoxanthine analogue C (120 mg/kg/d); and the mice in compound 1 group, compound 2 group . . . compound 12 group respectively received compound 1 (120 mg/kg/d), compound 2 (120 mg/kg/d) . . . compound 12 (120 mg/kg/d) prepared in example 1. After administration for consecutive 14 days, the mice were observed every day, and their weights and death conditions were recorded. After administration, blood was taken from eyeballs for immediately detecting the expression levels of NF-κB, TNF-α, IL-1 and IL-6 in serum, and lung tissues were taken for HE detection and Ashcroft scoring.
# [3] = tested on: novel coronavirus-induced pulmonary fibrosis model (COVID-19 novel coronavirus strains); experiment: Novel coronavirus-induced pulmonary fibrosis model; conditions: 120 mg/kg/d intragastric, 14 days; for Ashcroft scores: novel coronavirus + bleomycin, lung tissue HE; for IL-1β / IL-6 / NF-κB / TNF-α: serum, COVID-19 novel coronavirus + bleomycin, from two weeks after model
# Source text: Experimental method: an in-vivo novel coronavirus-induced pulmonary fibrosis model was established: C57BL/6 mice (with weights being 22-25 g) were randomly and evenly divided into a plurality of groups, including blank control group, model group, Nintedanib positive control group, hypoxanthine analogue A group, hypoxanthine analogue B group, hypoxanthine analogue C group, compound 1 group, a compound 2 group . . . compound 12 group, with 9 mice in each group. On Day 1, the mice in blank control group were instilled with normal saline nasally, and the mice in other groups were all infected with COVID-19 novel coronavirus strains (30 μL) through nasal instillation. On Day 2, the mice received 5 mg/kg bleomycin through tracheas to induce their pulmonary fibrosis. After the model was established for two weeks, the mice in each group were intragastrically administrated for intervention for consecutive 14 days; the mice in blank control group and model group intragastrically received the same dosage of normal saline as those in drug groups; the mice in Nintedanib positive control group received Nintedanib (120 mg/kg); the mice in hypoxanthine analogue A group, hypoxanthine analogue B group and hypoxanthine analogue C group respectively received hypoxanthine analogue A (120 mg/kg/d), hypoxanthine analogue B (120 mg/kg/d) and hypoxanthine analogue C (120 mg/kg/d); and the mice in compound 1 group, compound 2 group . . . compound 12 group respectively received compound 1 (120 mg/kg/d), compound 2 (120 mg/kg/d) . . . compound 12 (120 mg/kg/d) prepared in example 1. After administration for consecutive 14 days, the mice were observed every day, and their weights and death conditions were recorded. After administration, blood was taken from eyeballs for immediately detecting the expression levels of NF-κB, TNF-α, IL-1 and IL-6 in serum, and lung tissues were taken for HE detection and Ashcroft scoring.
Compound,Leucocyte [1],Lymphocyte [1],Neutrophil [1],Ashcroft scores [1],Ashcroft scores [2],IL-1β [2] [pg/mL],IL-6 [2] [pg/mL],NF-κB [2] [pg/mL],TNF-α [2] [pg/mL],Ashcroft scores [3],IL-1β [3] [pg/mL],IL-6 [3] [pg/mL],NF-κB [3] [pg/mL],TNF-α [3] [pg/mL]
"COC(=O)c1ccc2c(c1)NC(=O)/C2=C(\Nc1ccc(N(C)C(=O)CN2CCN(C)CC2)cc1)c1ccccc1 [Nintedanib, reference compound]",122.15 10^9/L,565.69 10^9/L,232.24 10^9/L,5.45,4.27,220.7,349.1,625.2,243.6,6.04,561.2,523.7,732.7,539.8
"CC(C)Oc1ncnc2c1ncn2C [Hypoxanthine analogue B, reference compound]",118.58 10^9/L,568.05 10^9/L,233.92 10^9/L,6.30,6.07,329.7,422.7,771.9,341.6,6.38,491.8,552.3,741.1,401.9
CC(C)Oc1ncnc2nc[nH]c12 [Compound 5],6.86 10^9/L,74.39 10^9/L,21.91 10^9/L,1.23,–,28.1,65.6,27.7,90.2,1.11,37.5,66.4,24.3,66.1
"O=c1[nH]cnc2[nH]cnc12 [Hypoxanthine analogue A, reference compound]",116.79 10^9/L,567.15 10^9/L,234.53 10^9/L,6.64,6.11,323.1,450.9,780.3,339.4,6.13,489.0,554.5,731.3,400.5
CC(C)Oc1ncnc2[nH]cnc12 [Compound 1],7.01 10^9/L,72.56 10^9/L,21.01 10^9/L,1.12,1.21,28.8,63.9,26.5,87.1,1.08,36.4,68.3,26.6,63.3
CC(=O)Oc1ncnc2c1ncn2C(C)C [Compound 11],6.70 10^9/L,73.25 10^9/L,22.47 10^9/L,1.50,1.26,27.9,64.6,26.6,88.7,1.31,37.2,–,26.7,69.0
